The target of assay [1] is Serine/threonine-protein kinase Chk2 (Homo sapiens) (UniProt O96017). As to the kind of experiment: Selectivity interaction (KinomeScan (DiscoverX)) EUB0001619a CHEK2. The following applies: at 1 µM.
Assay [2] has as its target T1, Activin receptor type-1B (Homo sapiens) (UniProt P36896).
T1 sequence (whole entry): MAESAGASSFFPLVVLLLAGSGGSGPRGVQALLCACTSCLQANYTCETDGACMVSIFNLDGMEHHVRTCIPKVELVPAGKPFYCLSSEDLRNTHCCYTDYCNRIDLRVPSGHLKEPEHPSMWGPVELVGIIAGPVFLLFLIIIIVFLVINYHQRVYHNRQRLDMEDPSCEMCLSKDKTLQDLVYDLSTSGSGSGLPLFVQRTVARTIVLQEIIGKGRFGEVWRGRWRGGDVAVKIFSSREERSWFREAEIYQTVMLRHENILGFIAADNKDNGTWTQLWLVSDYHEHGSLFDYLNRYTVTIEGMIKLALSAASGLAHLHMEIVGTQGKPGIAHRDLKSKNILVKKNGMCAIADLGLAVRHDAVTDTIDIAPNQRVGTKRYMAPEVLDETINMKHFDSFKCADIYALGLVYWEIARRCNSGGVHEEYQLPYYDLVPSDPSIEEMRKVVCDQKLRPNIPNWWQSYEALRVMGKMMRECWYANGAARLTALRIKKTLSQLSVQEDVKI
As to the kind of experiment: Selectivity interaction (KinomeScan (DiscoverX)) EUB0000666a ACVR1B. The following applies: at 10 µM.

In assay [3] the target is T2, Serine/threonine-protein kinase Sgk3 (Homo sapiens) (UniProt Q96BR1).
T2 sequence (whole entry): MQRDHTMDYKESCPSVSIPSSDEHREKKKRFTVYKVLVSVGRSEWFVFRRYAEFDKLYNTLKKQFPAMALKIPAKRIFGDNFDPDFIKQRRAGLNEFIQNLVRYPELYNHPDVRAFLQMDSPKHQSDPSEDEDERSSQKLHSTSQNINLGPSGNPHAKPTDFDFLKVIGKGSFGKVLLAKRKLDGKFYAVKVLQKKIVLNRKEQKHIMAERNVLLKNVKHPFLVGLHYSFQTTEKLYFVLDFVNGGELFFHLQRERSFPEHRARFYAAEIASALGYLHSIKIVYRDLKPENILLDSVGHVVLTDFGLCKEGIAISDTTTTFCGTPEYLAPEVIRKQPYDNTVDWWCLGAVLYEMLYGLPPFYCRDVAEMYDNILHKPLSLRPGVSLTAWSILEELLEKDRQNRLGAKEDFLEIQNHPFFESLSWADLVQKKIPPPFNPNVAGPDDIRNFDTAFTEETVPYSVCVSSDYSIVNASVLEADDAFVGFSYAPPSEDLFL
The assay is described as follows: Selectivity interaction (KinomeScan (DiscoverX)) EUB0000607a SGK3. The following applies: at 10 µM.

The target in assay [4] is Mitogen-activated protein kinase 8 (Homo sapiens, UniProt P45983). As to the kind of experiment: Selectivity interaction (Kinase panel (Invitrogen)) EUB0000639a MAPK8. The following applies: at 200 nM.
Assay [5] has as its target T3, Ephrin type-A receptor 1 (Homo sapiens) (UniProt P21709).
T3 sequence (whole entry): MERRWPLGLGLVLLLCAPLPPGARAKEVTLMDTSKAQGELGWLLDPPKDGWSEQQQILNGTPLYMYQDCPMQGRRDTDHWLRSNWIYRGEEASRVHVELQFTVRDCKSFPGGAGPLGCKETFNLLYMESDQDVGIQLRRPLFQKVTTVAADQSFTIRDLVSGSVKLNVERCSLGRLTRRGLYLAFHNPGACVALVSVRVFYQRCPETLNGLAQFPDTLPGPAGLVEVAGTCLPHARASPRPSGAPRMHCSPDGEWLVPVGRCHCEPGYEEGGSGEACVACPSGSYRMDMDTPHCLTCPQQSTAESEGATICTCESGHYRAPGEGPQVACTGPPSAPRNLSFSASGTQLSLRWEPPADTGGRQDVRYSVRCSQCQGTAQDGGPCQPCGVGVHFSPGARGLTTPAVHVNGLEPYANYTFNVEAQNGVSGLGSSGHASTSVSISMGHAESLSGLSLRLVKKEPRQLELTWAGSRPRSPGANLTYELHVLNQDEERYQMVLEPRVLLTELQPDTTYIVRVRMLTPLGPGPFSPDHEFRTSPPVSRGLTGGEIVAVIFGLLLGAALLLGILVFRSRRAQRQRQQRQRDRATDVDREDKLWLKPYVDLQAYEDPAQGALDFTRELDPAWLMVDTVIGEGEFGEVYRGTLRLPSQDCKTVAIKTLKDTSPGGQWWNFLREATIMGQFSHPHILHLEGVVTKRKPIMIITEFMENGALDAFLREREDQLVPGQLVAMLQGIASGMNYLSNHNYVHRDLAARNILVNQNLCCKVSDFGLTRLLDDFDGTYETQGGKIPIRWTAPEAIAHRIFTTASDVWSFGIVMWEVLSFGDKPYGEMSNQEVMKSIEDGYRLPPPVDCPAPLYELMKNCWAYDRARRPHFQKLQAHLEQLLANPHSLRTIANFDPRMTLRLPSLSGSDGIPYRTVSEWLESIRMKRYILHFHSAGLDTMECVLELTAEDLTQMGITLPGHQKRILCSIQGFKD
The assay is described as follows: Selectivity interaction (Upstate Kinase Profiler service (Millipore)) EUB0000056c EPHA1. The following applies: at 1 µM.

Assay [6] has as its target Serine/threonine-protein kinase pim-3 (Homo sapiens) (UniProt Q86V86). The assay is described as follows: Selectivity interaction (Kinase panel (DSF assay)) EUB0001558a PIM3. (DSF heats the sample and reads unfolding from a dye or from intrinsic fluorescence.)
Assay [7] deals with Calcium/calmodulin-dependent protein kinase type 1B (Homo sapiens) (UniProt Q6P2M8). The assay is described as follows: Selectivity interaction (KinomeScan (DiscoverX)) EUB0001079a PNCK. The following applies: at 1 µM.
The target in assay [8] is T4, Dual specificity tyrosine-phosphorylation-regulated kinase 2 (Homo sapiens) (UniProt Q92630).
T4 sequence (whole entry): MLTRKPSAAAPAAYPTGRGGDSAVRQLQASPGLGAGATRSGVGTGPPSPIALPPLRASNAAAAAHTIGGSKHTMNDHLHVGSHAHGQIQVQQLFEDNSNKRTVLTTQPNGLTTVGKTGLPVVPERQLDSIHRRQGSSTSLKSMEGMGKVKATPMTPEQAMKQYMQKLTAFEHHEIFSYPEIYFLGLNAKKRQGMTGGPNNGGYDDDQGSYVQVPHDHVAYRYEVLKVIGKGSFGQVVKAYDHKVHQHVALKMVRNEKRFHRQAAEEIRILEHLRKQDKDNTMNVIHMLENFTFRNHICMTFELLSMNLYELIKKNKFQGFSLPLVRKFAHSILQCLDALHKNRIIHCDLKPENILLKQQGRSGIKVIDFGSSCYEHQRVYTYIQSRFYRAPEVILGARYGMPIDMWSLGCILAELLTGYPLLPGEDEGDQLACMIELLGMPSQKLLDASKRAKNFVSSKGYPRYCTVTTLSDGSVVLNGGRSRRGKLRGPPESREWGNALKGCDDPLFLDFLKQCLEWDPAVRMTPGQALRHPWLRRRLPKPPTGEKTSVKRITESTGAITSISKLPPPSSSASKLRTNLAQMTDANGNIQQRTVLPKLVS
The assay is described as follows: Selectivity interaction (KinomeScan (DiscoverX)) EUB0000229b DYRK2. The following applies: at 10 µM.

Chain of Calcium/calmodulin-dependent protein kinase type 1B (Homo sapiens) (Q6P2M8 whole entry): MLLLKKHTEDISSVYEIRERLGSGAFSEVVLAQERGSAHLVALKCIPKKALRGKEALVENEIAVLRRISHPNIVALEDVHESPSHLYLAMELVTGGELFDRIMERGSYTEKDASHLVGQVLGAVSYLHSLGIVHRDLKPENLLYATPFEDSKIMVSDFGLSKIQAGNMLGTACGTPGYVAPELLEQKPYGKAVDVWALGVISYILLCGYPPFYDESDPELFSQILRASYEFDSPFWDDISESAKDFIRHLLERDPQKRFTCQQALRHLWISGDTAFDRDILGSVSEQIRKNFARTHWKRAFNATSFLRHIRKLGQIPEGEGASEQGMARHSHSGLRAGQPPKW
Chain of Mitogen-activated protein kinase 8 (P45983 whole entry): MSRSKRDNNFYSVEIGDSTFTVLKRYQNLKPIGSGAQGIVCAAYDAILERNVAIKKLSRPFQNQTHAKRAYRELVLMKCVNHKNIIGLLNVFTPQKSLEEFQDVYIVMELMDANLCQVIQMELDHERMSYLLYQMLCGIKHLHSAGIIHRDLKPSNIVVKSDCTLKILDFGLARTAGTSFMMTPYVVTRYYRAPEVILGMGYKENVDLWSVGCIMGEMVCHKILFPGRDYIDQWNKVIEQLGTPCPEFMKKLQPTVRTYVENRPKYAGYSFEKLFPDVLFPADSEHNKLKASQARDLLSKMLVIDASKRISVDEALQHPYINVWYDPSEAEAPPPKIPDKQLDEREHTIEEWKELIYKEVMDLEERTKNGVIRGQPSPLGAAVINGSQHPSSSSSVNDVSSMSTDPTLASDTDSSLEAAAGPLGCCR
Chain of Serine/threonine-protein kinase Chk2 (Homo sapiens) (O96017 whole entry): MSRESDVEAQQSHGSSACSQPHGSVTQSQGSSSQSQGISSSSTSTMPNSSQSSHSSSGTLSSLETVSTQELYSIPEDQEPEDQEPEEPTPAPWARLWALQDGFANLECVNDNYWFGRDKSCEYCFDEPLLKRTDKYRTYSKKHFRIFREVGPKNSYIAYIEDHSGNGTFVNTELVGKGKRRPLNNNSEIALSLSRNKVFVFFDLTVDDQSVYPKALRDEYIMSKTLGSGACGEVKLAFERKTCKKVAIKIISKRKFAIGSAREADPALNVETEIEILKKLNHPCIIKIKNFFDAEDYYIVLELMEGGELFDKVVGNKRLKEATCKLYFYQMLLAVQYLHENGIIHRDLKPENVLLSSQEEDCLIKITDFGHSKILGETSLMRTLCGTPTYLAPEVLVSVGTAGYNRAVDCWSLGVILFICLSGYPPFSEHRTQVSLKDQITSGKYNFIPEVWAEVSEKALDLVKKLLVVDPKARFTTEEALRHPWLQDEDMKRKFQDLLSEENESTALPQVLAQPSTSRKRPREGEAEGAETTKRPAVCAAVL

On to `N#Cc1cccc(-c2c[nH]c3ncnc(N4CCOCC4)c23)c1`, for which, in assay [1], the % of control was determined as 100%.

As for `O=C(NOC[C@H](O)CO)c1ccc(F)c(F)c1Nc1ccc(I)cc1F`, in assay [2], the % of control turned out to be 100%.

`CNC(=O)Nc1ccc(-c2nc(N3CC4CCC(C3)O4)c3cnn(C4CCC5(CC4)OCCO5)c3n2)cc1` had a % of control in assay [3] of 100%.

On to `CC[C@@H]1[C@H](F)C(=O)N[C@@H]1COc1nccc2cc(C(N)=O)c(OC)cc12` [ZIMLOVISERTIB], for which, in assay [4], the % of inhibition amounted to 6.17%.

Regarding `Cc1ccc(-c2ccc3c(ccc4sc5c(c43)NC[C@@H](C)NC5=O)n2)cn1`, the % of inhibition in assay [5] is -6%.

For the compound `CC(C)(O)[C@H](F)CN1Cc2cc(NC(=O)c3cnn4cccnc34)c(N3CCOCC3)cc2C1=O`, the dTM in assay [6] is 1 K.

As to `Nc1cnc(N2CCc3cc(S(=O)(=O)Nc4c(F)cc(Cl)cc4F)cc(N4CCCC4=O)c32)nc1` [TP-020n], in assay [7], the % of control came to 67%.

In assay [8], `COc1cc(N(C)c2ccnc3ccc(C(F)(F)F)cc23)cc(OC)c1OC` came in with a % binding of 84%.
